Patent US6159988A, “Arylcycloalkyl derivatives, their production and their use” (Hoeschst Aktiengesellschaft, priority 1992, dated 2000)
Counter-ions that a name gives are not always drawn.

Key:
[1] = test system: IL-1; experiment: IL-1 release inhibition (Table 2); format: cell-based, human
Protocol: 10 ml of human blood were carefully drawn from the antecubital vein using a syringe containing 1 ml of a solution of 3.8% sodium citrate. After dilution with 10 ml PM 16 (Serva, Heidelberg, FRG) and underlayering with 15 ml Lymphoprep® (Molter GmbH), the sample was centrifuged at 400×g for 40 min at 20° C. The mononuclear cells forming a white ring between lymphoprep and plasma were carefully aspirated by a syringe, diluted 1:1 with PM 16 and centrifuged again at 400×g for 10 min. […] was washed with 10 ml RPMI 1640 (Gibco, Berlin, FRG), containing additionally 300 mg/l L-glutamine, 25 mmol/l […] HEPES, 100 μg/ml streptomycin and 100 μg/ml penicillin. Finally, using a Coulter counter IT, the cell suspension was adjusted to 5×10^6 cells/ml. The cells consist of approx. 90% lymphocytes and 10% monocytes.
10 μl DMSO/water (1:10, v/v), containing the test compound, was added to 480 μl of a suspension, containing 5×10^6 mononuclear cells. The synthesis of IL-1 was stimulated by the addition of 10 μl DSMO/water (1:10, v/v), containing 0,5 μg LPS (Salmonella abortus equi, Sigma). After incubation at 37° C. for 18 hours, the samples were cooled to 0° C. and centrifuged for 1 min. in a table centrifuge. 25 μl aliquots of the supernatant were assayed for IL-1 alpha activity using a commercially available 125-J-IL-1-alpha radioimmunoassay Kit (Amersham/UK), and for IL-1 beta in a similar way using the specific test kit. Control experiments were performed as described without test compound, or with cycloheximide as a test compound.

[2] = test system: adjuvant arthritis in rats; experiment: Adjuvant-induced arthritis in rats; format: in vivo, rat (female Wistar); conditions: 30 mg/kg orally once every day for 12 days, compared to control
[3] = test system: Cotton Pellet Granuloma in Rats; experiment: Inhibition of carrageenin cotton pellet granuloma in rats; format: in vivo, rat (Wistar); conditions: 30 mg/kg, p.o. × 5
Protocol: The implantation of carrageenin impregnated cotton pellets results in production of large, well-defined granuloma which are easily dissected. The potency of the compounds are assessed by measuring the reduction in granuloma tissue formation.
Cotton wool pellets weighing 40 mg were used for sterilization.
Pellets were dried overnight under a lamp. The pellets in the weight range of 42-44 mg were selected.
Rats (in groups of 6, male or female, Charles River, Wistar, weighing 140-150 g) were anaesthetized with ether. The back was shaved and cleaned; swabbed with alcohol and one centimeter incision was made in the lower midback. A small channel was made bilaterally using a blunt forceps and one cotton pellet placed in each channel. Air from the incision was removed and the wound was stitched. […] Three hours after the administration of the last dose on day 7, animals were sacrificed. The pellets were removed by cutting the skin along the dorsal midline and peeling the skin away from the bodywall in both lateral directions. The pellets were weighed and then placed in drying oven at 140° C. overnight. The dry weights were then recorded and the amount of granuloma was assessed by subtracting the original pellet weight from wet weights and dry weights. The data was evaluated using the difference of left and right weights (cf. Table 4).

[4] = test system: experimental allergic encephalomyelitis (EAE) in guinea pigs; experiment: Experimental allergic encephalomyelitis (EAE) in guinea pigs; format: in vivo, guinea pig; conditions: 100 mg/kg p.o. once daily for 10 days
Text: This method permits the evaluation of the potential of the test compound in preventing the development of an autoimmune disorder leading to demyelination in the guinea pigs which can be equated to multiple sclerosis disease in humans. EAE is a reproducible chronic inflammatory autoimmune disease of the central nervous system in which an animal is immunized with either a homologous or heterologous extract of the whole brain and spinal cord, which contains the basic myelin protein together with Freund's Complete Adjuvant (FCA). A pathological condition would set in during ten to twenty days following immunization, which is characterized by weight loss, abnormal gait, mild to severe ataxia, paraparesis and moribund state leading to death. The potential of the test compounds to prevent this autoimmune condition was evaluated by observing the severity of the disease and mortality in comparison with untreated and hydrocortisone (standard drug) treated animals.
Guinea pigs (200-300 g) were randomly distributed into groups of 10 each after receiving 0.075 ml of it brain and spinal cord extract in FCA intradermally on the back and 0.050 ml intrapedally in one hind paw. Compound 9 of Table 2 was administered orally at 3 mg/kg once daily for 10 days. The standard compound was administered 100 mg/kg p.o. once daily for 10 days. The weights of the animals were noted every day. Eight days after the induction of the disease, the animals were rated regularly for the severity of the disease and mortality was monitored.

[5] = Homo sapiens, read-out: IL-1 Rel. Inhib.

SMILES: COc1ccc(C(=O)/C=C/c2cccc(Br)c2)c(O)c1[C@@H]1CCCC[C@H]1O (racemic) [Compound 16 of Table 2, trans-(+/-)-2-[6-Methoxy-2-hydroxy-3-(3-(3-bromophenyl))prop-2-(E)-enoyl]phenylcyclohexanol]
- IL-1 Rel. Inhib. ([1]; 11.6 μM): 81%

SMILES: COc1ccc([C@@H]2CCCC[C@H]2O)c(O)c1C(=O)/C=C/c1cccc(Br)c1.COc1ccc([C@@H]2CCCC[C@H]2O)c(O)c1C(=O)/C=C/c1cccc(Br)c1.O (racemic) [Compound 18 of Table 2, trans-(+/-)-2-[2-Hydroxy-4-methoxy-3-(3-(3-bromophenyl))prop-2-(E)-enoyl)phenylcyclohexanol hemihydrate]
- IL-1 Rel. Inhib. ([1]; 5 μM): 71%

SMILES: COc1cc(OC)c([C@@H]2CCCC[C@H]2O)c(O)c1C(=O)/C=C/c1cccc(Br)c1 (relative stereo) [Compound 6 of Table 1]
- reduction in the uninjected paw volume [2]: very slight reduction

SMILES: COc1ccc(CCC(=O)c2c(OC)cc(OC)c([C@@H]3CCCC[C@H]3OC(=O)CN)c2O)cc1OC (relative stereo) [Compound 19 of Table 2, trans-(+/-)-1-[4,6-Dimethoxy-2-hydroxy-3-(2-(β-amino)acetoxy)cyclohexyl]phenyl-(3-(3,4-dimethoxy)phenyl)propanone hydrochloride monohydrate]
- inhibition at 10 µM [1, 5]: 51%

SMILES: COc1cc(OC)c([C@@H]2CCCC[C@H]2OC(=O)CN2CCCCC2)c(O)c1C(=O)/C=C/c1cccc(Br)c1 (relative stereo) [Compound 4 of Table 2]
- inhibition at 16 µM ([1]; Homo sapiens, 16 μM, read-out: IL-1 Rel. Inhib.): 43%

SMILES: COc1cc(OC)c([C@@H]2CCCC[C@H]2O)c(O)c1C(=O)CCc1cccc(Br)c1 (relative stereo) [Compound 12 of Table 2]
- inhibition at 10.5 µM ([1]; Homo sapiens, 10.5 μM, read-out: IL-1 Rel. Inhib.): 26%

SMILES: COc1cc(OC)c([C@@H]2CCCC[C@H]2O)c(O)c1C(=O)/C=C/c1cccc(N)c1 (relative stereo) [Compound 28 of Table 2]
- inhibition at 1 µM [1, 5]: 33%

SMILES: COc1cc(OC)c([C@@H]2CCCC[C@H]2OC(=O)CN(C)C)c(O)c1C(=O)/C=C/c1cccc(Br)c1 (relative stereo) [Compound 2 of Table 2]
- inhibition at 17 µM [1, 5]: 50%

SMILES: COc1cc(OC)c([C@H]2CCCC[C@@H]2OC(=O)CN)c(O)c1C(=O)/C=C/c1cccc(Br)c1 [Compound 6 of Table 2, trans-(+)-2-[4,6-Dimethoxy-2-hydroxy-3-(3-(3-bromophenyl)prop-2-(E)-enoyl)phenyl]cyclohexyl-2-amino acetate hydrochloride monohydrate]
- inhibition at 1 µM [1, 5]: 88%

SMILES: COc1cc(/C=C/C(=O)c2c(OC)cc(OC)c([C@@H]3CCCC[C@H]3O)c2O)cc(Br)c1OC (relative stereo) [Compound 26 of Table 2]
- inhibition at 9.5 µM ([1]; Homo sapiens, 9.5 μM, read-out: IL-1 Rel. Inhib.): 50%

SMILES: COc1cc(OC)c([C@@H]2CCCC[C@H]2O)c(O)c1C(=O)/C=C/c1cccc(C)c1 (relative stereo) [Compound 20 of Table 2]
- inhibition at 10 µM [1, 5]: 49%

SMILES: COc1cc(OC)c([C@@H]2CCCC[C@H]2OC(=O)CN)c(O)c1C(=O)/C=C/c1cccc(Br)c1 (relative stereo) [Compound 3 of Table 2, trans-(+/-)-2-[4,6-Dimethoxy-2-hydroxy-3-(3-(3-bromophenyl)prop-2-(E)-enoyl)phenyl]cyclohexyl-2-amino acetate hydrochloride monohydrate]
- inhibition at 17 µM [1, 5]: 63%

SMILES: COc1cc(O)c(C(=O)/C=C/c2cccc(Br)c2)c(OC)c1[C@@H]1CCCC[C@H]1O (racemic) [Compound 17 of Table 2, trans-(+/-)-2-[2,6-Dimethoxy-4-hydroxy-3-(3-(3-bromophenyl))prop-2-(E)-enoyl]phenylcyclohexanol]
- IL-1 Rel. Inhib. ([1]; 10.8 μM): 71%

SMILES: COc1cc(OC)c([C@H]2CCCC[C@H]2O)c(O)c1C(=O)/C=C/c1cccc(Br)c1 (relative stereo) [Compound 11 of Table 2, cis-(+/-)-2-[4,6-Dimethoxy-2-hydroxy-3-(3-(3-bromophenyl))prop-2-(E)-enoyl]phenylcyclohexanol]
- inhibition at 10.8 µM ([1]; Homo sapiens, 10.8 μM, read-out: IL-1 Rel. Inhib.): 90%

SMILES: COc1cc(OC)c([C@H]2CCCC[C@@H]2O)c(O)c1C(=O)/C=C/c1cccc(Br)c1 [Compound 15 of Table 2, trans-(+)-2-[4,6-Dimethoxy-2-hydroxy-3-(3-(3-bromophenyl))prop-2-(E)-enoyl]phenylcyclohexanol]
- inhibition at 0.3 µM [1, 5]: 50%

SMILES: COc1cc(OC)c([C@@H]2CCCC[C@H]2OC(=O)CN)c(O)c1C(=O)/C=C/c1cccc(Br)c1 [Compound 5 of Table 2, trans-(-)-2-[4,6-Dimethoxy-2-hydroxy-3-(3-(3-bromophenyl)prop-2-(E)-enoyl)phenyl]cyclohexyl-2-amino acetate hydrochloride monohydrate]
- inhibition at 1 µM [1, 5]: 95%

SMILES: COc1cc(OC)c(C2CCCCC2OC(=O)[C@H](C)N)c(O)c1C(=O)/C=C/c1cccc(Br)c1 (mixture of isomers) [Compound 7 of Table 2, trans-(+/-)-2-[4,6-Dimethoxy-2-hydroxy-3-(3-(3-bromophenyl)prop-2-(E)-enoyl)phenyl]cyclohexyl-2-(S)-amino propanoate]
- inhibition at 1 µM [1, 5]: 35%

SMILES: C[C@]12CCC(=O)C=C1CC[C@@H]1[C@@H]2[C@@H](O)C[C@@]2(C)[C@H]1CC[C@]2(O)C(=O)CO [Hydrocortisone, reference compound]
- % Inhibition of granuloma, Dry wt. [3]: 37.5%
- % Inhibition of granuloma, Wet wt. [3]: 20.5%
- reduction in the mortality [4]: 21%

SMILES: COc1cc(OC)c([C@@H]2CCCC[C@H]2OC(C)=O)c(O)c1C(=O)/C=C/c1cccc(Br)c1 (relative stereo) [Compound 1 of Table 2]
- inhibition at 10 µM [1, 5]: 41%

SMILES: COc1cc(OC)c([C@@H]2CCCC[C@H]2O)c(O)c1C(=O)/C=C/c1cc(C)ccc1C (relative stereo) [Compound 21 of Table 2, trans-(+/-)-2-[4,6-Dimethoxy-2-hydroxy-3-(3-(2,5-dimethylphenyl))prop-2-(E)-enoyl]phenylcyclohexanol monohydrate]
- inhibition at 10 µM [1, 5]: 96%

SMILES: COc1cc(OC)c(C2CCCCC2)c(O)c1C(=O)/C=C/c1ccc(Cl)cc1 [Compound 22 of Table 2]
- inhibition at 12 µM ([1]; Homo sapiens, 12 μM, read-out: IL-1 Rel. Inhib.): 30%

SMILES: COc1cc(OC)c([C@@H]2CCCC[C@H]2O)c(O)c1C(=O)/C=C/c1cccc(Br)c1 [Compound 14 of Table 2, trans-(-)-2-[4,6-Dimethoxy-2-hydroxy-3-(3-(3-bromophenyl))prop-2-(E)-enoyl]phenylcyclohexanol]
- inhibition at 0.3 µM [1, 5]: 50%
